From ChEMBL document CHEMBL1201862, “PubChem BioAssay data set” (2004) come the findings set out here.

Among the test systems are EKVX; HCC 2998; HCT-15; HL-60; HOP-92; HT-29; IGROV-1; KM12; Malme-3M; NCI-H226; OVCAR-3; OVCAR-8; RPMI-8226; RXF 393; SK-MEL-28; SN12C; TK-10; UACC-257.
Test in all cases: inhibition of tumour cell growth, NCI panel, 48 h

Each structure is given as a SMILES string.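 Results reflect a 48-hour exposure of cells in 96-well plates to compound at five concentrations. GI50: concentration for 50% inhibition of growth.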 The source made the active and inactive calls. No stated cut-off is given here; in the data, active = GI50 up to about 1.1 µM and inactive = higher.

On to `COc1ccc2c(c1)CCc1c-2nc2cc3c(cc2c1O)OCO3`, for which the GI50 with EKVX was > 100 µM (inactive); in the assay with HCC 2998 it was > 100 µM (inactive); with HCT-15, above 100 µM; in the assay on HL-60, > 100 µM (inactive); with HOP-92, > 100 µM (inactive); in the assay with HT-29, > 100 µM (inactive). Further, the GI50 in the assay on IGROV-1, with KM12, in the assay on Malme-3M, in the assay with NCI-H226, in the assay with OVCAR-3 and with OVCAR-8 was > 100 µM (inactive) throughout. For the same compound, the GI50 in the assay with RPMI-8226, in the assay with RXF 393, with SK-MEL-28, in the assay with SN12C and with TK-10 was > 100 µM (inactive) each time.

As to `O=c1c(-c2ccccc2)c(O)nc2[nH]c3ccccc3n12`, the GI50 in the assay on EKVX is > 100 µM (inactive); with HCC 2998, > 100 µM (inactive); in the assay with HCT-15, above 100 µM; in the assay on HL-60, > 100 µM (inactive); in the assay on HOP-92 it was > 100 µM (inactive); in the assay with HT-29, > 100 µM (inactive). The GI50 in the assay on IGROV-1, in the assay with KM12, with Malme-3M, in the assay with NCI-H226, in the assay on OVCAR-3 and in the assay with OVCAR-8 was > 100 µM (inactive) throughout. The GI50 in the assay with RPMI-8226, with RXF 393, in the assay on SK-MEL-28, in the assay with SN12C, in the assay with TK-10 and with UACC-257 was > 100 µM (inactive) in each case.

Consider `COc1cc(Nc2cnc3ccc(C(F)(F)F)cc3n2)cc(OC)c1OC`, for which the GI50 in the assay with EKVX is > 100 µM (inactive); in the assay on HCC 2998, 4.43 µM (inactive); with HCT-15 it was 3.95 µM; in the assay with HL-60, 9.71 µM (inactive); with HOP-92, 4.82 µM (inactive); in the assay with HT-29 it was 12.2 µM (inactive). Further, the GI50 in the assay with Malme-3M is > 100 µM (inactive); with NCI-H226, > 100 µM (inactive); in the assay on OVCAR-3 it was > 100 µM (inactive); with OVCAR-8 it was > 100 µM (inactive); in the assay on RPMI-8226, 15.3 µM (inactive); with RXF 393, 68.4 µM (inactive). The GI50 is > 100 µM (inactive) in the assay on SK-MEL-28, > 100 µM (inactive) in the assay on SN12C, 38.1 µM (inactive) in the assay on TK-10 and 9.84 µM (inactive) with UACC-257.

With `COC(=O)CSc1nnc(-c2ccc(O)c([N+](=O)[O-])c2)[nH]1`, the GI50 in the assay with EKVX is > 100 µM (inactive); in the assay with HCC 2998 it was > 100 µM (inactive); with HCT-15, above 100 µM; in the assay on HL-60, > 100 µM (inactive); with HOP-92, > 100 µM (inactive); in the assay with HT-29 it was > 100 µM (inactive). The GI50 in the assay on IGROV-1, with Malme-3M, in the assay with NCI-H226, with OVCAR-3, with OVCAR-8 and with RPMI-8226 was > 100 µM (inactive) each time. Moreover, the GI50 with RXF 393, in the assay with SK-MEL-28, in the assay on SN12C, with TK-10 and in the assay on UACC-257 was > 100 µM (inactive) in each case.

With `CNS(=O)(=O)NNS(=O)(=O)c1ccc(Br)cc1`, the GI50 in the assay with EKVX was > 100 µM (inactive); in the assay on HCC 2998, > 100 µM (inactive); in the assay on HCT-15, above 100 µM; in the assay on HL-60, > 100 µM (inactive); in the assay with HOP-92, 32.1 µM (inactive); in the assay with HT-29 it was > 100 µM (inactive). In addition, the GI50 in the assay with IGROV-1, in the assay on Malme-3M, in the assay with NCI-H226, in the assay on OVCAR-8, in the assay on RPMI-8226 and in the assay on RXF 393 was > 100 µM (inactive) throughout. Moreover, the GI50 in the assay with SK-MEL-28, in the assay on TK-10 and in the assay with UACC-257 was > 100 µM (inactive) each time.

Regarding `NC(=O)NC1C(C(=O)O)N(Cc2ccccc2)C(=O)N1Cc1ccccc1` (stereo not given), the GI50 with EKVX is > 100 µM (inactive); with HCC 2998, > 100 µM (inactive); in the assay with HCT-15, above 100 µM; with HL-60, > 100 µM (inactive); in the assay on HOP-92, > 100 µM (inactive); in the assay on HT-29, > 100 µM (inactive). In addition, the GI50 in the assay on IGROV-1, in the assay on KM12, with Malme-3M, in the assay with NCI-H226, in the assay on OVCAR-3 and in the assay on OVCAR-8 was > 100 µM (inactive) each time. Also, the GI50 with RPMI-8226, in the assay on SK-MEL-28, in the assay on TK-10 and in the assay on UACC-257 was > 100 µM (inactive) each time.

With `COc1ccc(OCC(=O)O)c2c1CCCC2=O`, the GI50 was > 100 µM (inactive) with EKVX; > 100 µM (inactive) in the assay with HCC 2998; above 100 µM in the assay on HCT-15; > 100 µM (inactive) in the assay on HL-60; > 100 µM (inactive) in the assay with HOP-92; > 100 µM (inactive) with HT-29. Besides, the GI50 with IGROV-1 was > 100 µM (inactive); in the assay with KM12 it was > 100 µM (inactive); in the assay on Malme-3M, > 100 µM (inactive); with NCI-H226 it was 64.6 µM (inactive); in the assay on OVCAR-3, > 100 µM (inactive); with OVCAR-8, > 100 µM (inactive). Besides, the GI50 in the assay with RPMI-8226, in the assay on RXF 393, in the assay on SK-MEL-28, with SN12C, in the assay on TK-10 and in the assay with UACC-257 was > 100 µM (inactive) each time.

For the compound `COC(=O)C12C3C4C5C3(C#N)C1C5(C(=O)OC)C42C(=O)N(C(C)C)C(C)C` (stereo not given), the GI50 is > 100 µM (inactive) with EKVX; > 96.6 µM (inactive) with HCC 2998; above 42.2 µM in the assay with HCT-15; > 43.7 µM (inactive) in the assay on HL-60; > 100 µM (inactive) with HOP-92; > 100 µM (inactive) in the assay on HT-29. For the same compound, the GI50 in the assay with IGROV-1 was > 100 µM (inactive); with KM12, > 100 µM (inactive); in the assay on Malme-3M, > 100 µM (inactive); with NCI-H226, > 100 µM (inactive); in the assay on OVCAR-3, > 100 µM (inactive); in the assay on OVCAR-8 it was > 63 µM (inactive). Besides, the GI50 is > 48.6 µM (inactive) in the assay on RPMI-8226; > 100 µM (inactive) in the assay with RXF 393; > 100 µM (inactive) with SK-MEL-28; > 100 µM (inactive) in the assay on SN12C; > 100 µM (inactive) with TK-10; > 100 µM (inactive) with UACC-257.

Consider `CC1=C(C(=O)Nc2cc(=O)n(C)c(=O)n2C)C(c2ccco2)C(C(=O)Nc2cc(=O)n(C)c(=O)n2C)=C(C)N1`, for which the GI50 in the assay with EKVX is > 100 µM (inactive); with HCC 2998, > 100 µM (inactive); in the assay with HL-60, > 100 µM (inactive); in the assay with HOP-92, 48.5 µM (inactive); in the assay with HT-29, > 100 µM (inactive); in the assay with IGROV-1 it was > 100 µM (inactive). Moreover, the GI50 with KM12, with Malme-3M, with NCI-H226, in the assay with OVCAR-3, in the assay with OVCAR-8 and with RPMI-8226 was > 100 µM (inactive) in each case. Moreover, the GI50 in the assay with RXF 393, with SK-MEL-28, with SN12C, in the assay with TK-10 and in the assay on UACC-257 was > 100 µM (inactive) throughout.

On to `CC(=O)NC(Cc1ccccc1)C(=S)N1CCCC1` (stereo not given), for which the GI50 in the assay on EKVX is > 100 µM (inactive); in the assay with HCC 2998, > 100 µM (inactive); in the assay with HCT-15 it was above 100 µM; in the assay with HL-60, > 100 µM (inactive); in the assay on HOP-92 it was > 80.5 µM (inactive); in the assay on HT-29, > 100 µM (inactive). Moreover, the GI50 in the assay on IGROV-1, in the assay with KM12, in the assay on Malme-3M, with NCI-H226, in the assay on OVCAR-3 and with OVCAR-8 was > 100 µM (inactive) each time. For the same compound, the GI50 in the assay on RPMI-8226, with RXF 393, in the assay on SK-MEL-28, in the assay on SN12C, with TK-10 and in the assay on UACC-257 was > 100 µM (inactive) throughout.

On to `COC(=O)/C=C/C1C2C3(CCC(C)C12C)OCCS3` (stereo not given), for which the GI50 in the assay with EKVX was > 100 µM (inactive); in the assay on HCC 2998, > 100 µM (inactive); in the assay with HCT-15 it was above 100 µM; in the assay with HL-60, > 100 µM (inactive); with HOP-92, > 100 µM (inactive); in the assay with HT-29, > 100 µM (inactive). For the same compound, the GI50 with IGROV-1, with KM12, in the assay on Malme-3M, with NCI-H226, with OVCAR-3 and with OVCAR-8 was > 100 µM (inactive) each time. The GI50 in the assay on RXF 393, in the assay with SK-MEL-28, in the assay on SN12C, in the assay on TK-10 and with UACC-257 was > 100 µM (inactive) each time.

Turning to `CCN(CC)CCNc1ccc2nnn3c4ccccc4c(=O)c1c23`, the GI50 in the assay on EKVX is 4.13 µM (inactive); in the assay on HCC 2998, 7.31 µM (inactive); in the assay on HCT-15 it was 4.51 µM; in the assay with HL-60, 2.89 µM (inactive); in the assay with HOP-92, 2.48 µM (inactive); in the assay with HT-29, 2.51 µM (inactive). Further, the GI50 with IGROV-1 was 6.98 µM (inactive); in the assay on KM12, 4.01 µM (inactive); in the assay with Malme-3M it was 4.01 µM (inactive); in the assay on NCI-H226, 2.01 µM (inactive); in the assay with OVCAR-3, 5.07 µM (inactive); in the assay on OVCAR-8, 3.15 µM (inactive). Also, the GI50 with RPMI-8226 was 2.45 µM (inactive); in the assay on RXF 393, 6.21 µM (inactive); with SK-MEL-28, 4.65 µM (inactive); in the assay with SN12C, 4.41 µM (inactive); in the assay with TK-10, 4.39 µM (inactive); in the assay on UACC-257 it was 4.48 µM (inactive).
